According to patent publication US9408854B2, “Methods and systems for pharmacogenomic treatment of cardiovascular conditions” (ROSTAQUO S.P.A., priority 2009, dated 2016):

Test system: hypertensive patients
Assay: Pharmacogenomic study: change of office systolic blood pressure (DSBP5_0) after 5 weeks of rostafuroxin vs placebo, by genotype
Format: in vivo, human
Protocol: A pharmacogenomic study was performed to ascertain the effect of genetic variations on an individual response to rostafuroxin. The sample for the pharmacogenomic study consisted of 342 individuals that were genotyped with the Human1M array from Illumina using Human1M Duo CHIP genotyping Bead Chip according to procedure described in [Ref. 10, 11, 12]. Among the individuals, 169 were administered the placebo treatment and 173 the active drug (rostafuroxin) in the first period (5 weeks) with demographics as in [Ref 13]. In particular, patients were randomized to one of the following oral doses of rostafuroxin: 0.05, 0.15, 0.5, 1.5, or 5 mg/day for 5 weeks. Each dose had to be compared to a placebo in a crossover design.
For the above sample of individuals a genetic association analysis, was performed to associate the phenotype of the tested individuals with the SNPs detected in the individuals. The selected phenotype of interest was the blood pressure response. The SNPs selected for detection were the 1111170 SNPs on autosomal chromosomes of the individual.
The genetic analysis was performed according to a quantitative genetic association design where the phenotype of interest is a quantitative variable (QT), and the variables (factors) affecting the distribution of the phenotype of interest are SNPs, therapy (placebo, rostafuroxin) and the SNP*therapy interaction.
In particular, the quantitative phenotype selected for the statistical analyses was the difference in mmHg between the office Systolic Blood Pressure (SBP) at the end of first treatment period (SBP_5) and the office Systolic Blood Pressure at baseline after one month of run-in (SBP_0) and is herein also identified as DSBP5_0. The selected QT phenotype and other factors affecting distribution of the phenotype of interest were then analyzed according to the following quantitative trait interaction test Phenotype=SNP+therapy+SNP*therapy as illustrated in further details below.
In particular, in Table 2 the descriptive statistics of DSBP5_0 for the entire sample and for the patients treated with placebo and rostafuroxin are listed. The rather modest basal level of SBP can be explained in view of the recruitment of patients with “mild” hypertension (SBP range 140-179 mmHg), required by the inclusion of a placebo arm.
Those SNPs were further selected to identify the genotypes with the largest response to rostafuroxin compared to placebo by performing a Statistical ANOVA analysis using STATA software in placebo and rostafuroxin with DSBP5_0 as dependent variable and the candidate significant SNPs as independent variables. In particular, to select the genotypes of the interactions between two SNPs with the largest response to rostafuroxin compared to placebo, the Applicants performed an ANOVA statistics in placebo and rostafuroxin with DSBP5_0 as dependent variable and the interaction s between SNPs as independent variables. The Applicants report an example of this procedure in FIG. 5: interaction between rs8899 and rs4678. The Applicants selected the interaction between the genotype AA of rs8899 and the genotype BB of rs4678 because it presents the greatest remarkable decrement in the therapy group and not in the placebo group.
In particular, to select the genotypes with the largest response to rostafuroxin compared to placebo, the Applicants performed an ANOVA statistics (oneway) in placebo and rostafuroxin with DSBP5_0 as dependent variable and the significant SNPs as independent variables.

[1] = GWS SNP ga001619 (PIGR) genotype 1
[2] = GWS SNP rs188334 (FAIM3) genotype 1
[3] = GWS SNP rs721207 (LOC131691) genotype 3
[4] = GWS SNP rs748140 (PIGR) genotype 1
[5] = GWS SNP rs1110446 (TRIM31) genotype 1
[6] = GWS SNP rs1110446 (TRIM31) genotype 2
[7] = GWS SNP rs1362126 (HLA-F) genotype 3
[8] = GWS SNP rs1901139 (LOC644192) genotype 3
[9] = GWS SNP rs1998394 (LOC728316) genotype 3
[10] = GWS SNP rs2275531 (PIGR) genotype 3
[11] = GWS SNP rs2345088 (KCNS3) genotype 1
[12] = GWS SNP rs2345088 (KCNS3) genotype 2
[13] = GWS SNP rs2427832 (LOC649458) genotype 2
[14] = GWS SNP rs2461911 (LOC389970) genotype 1
[15] = GWS SNP rs2517718 (HLA-A) genotype 1
[16] = GWS SNP rs2555500 (LOC389174) genotype 1
[17] = GWS SNP rs2743951 (RP3-377H14.5) genotype 3
[18] = GWS SNP rs3087816 (SLC30A7) genotype 2
[19] = GWS SNP rs3893464 (HCG9) genotype 1
[20] = GWS SNP rs4710592 (RCADH5) genotype 3
[21] = GWS SNP rs4998662 (FAM46A) genotype 2
[22] = GWS SNP rs5013093 (HLA-G) genotype 1
[23] = GWS SNP rs6457110 (HCG9) genotype 1
[24] = GWS SNP rs6718282 (KCNS3) genotype 2
[25] = GWS SNP rs7216331 (COX10) genotype 2
[26] = GWS SNP rs7521668 (DPH5) genotype 1
[27] = GWS SNP rs7521668 (DPH5) genotype 2
[28] = GWS SNP rs8179654 (LOC642727) genotype 3

C[C@]12CC[C@H](O)C[C@H]1CC[C@@H]1[C@@H]2CC[C@]2(C)[C@@](O)(c3ccoc3)CC[C@]12O [rostafuroxin, 17β-(3-furyl)-5β-androstane-3β,14β,17α-triol]
higher response in blood pressure drop, low doses vs high doses (0.05 to 0.50 mg/day vs 1.5 to 5 mg/day): +50%
DELTA delta Therapy placebo [1]: 9.252 mmHg
DSBP5_0 therapy [1]: −13.615 mmHg
DELTA delta Therapy placebo [2]: 8.146 mmHg
DSBP5_0 therapy [2]: −11.82 mmHg
DELTA delta Therapy placebo [3]: 6.934 mmHg
DSBP5_0 therapy [3]: −11.58 mmHg
DELTA delta Therapy placebo [4]: 6.506 mmHg
DSBP5_0 therapy [4]: −11.28 mmHg
DELTA delta Therapy placebo [5]: 20.59 mmHg
DSBP5_0 therapy [5]: −16.37 mmHg
DELTA delta Therapy placebo [6]: 3.54 mmHg
DSBP5_0 therapy [6]: −10.13 mmHg
DELTA delta Therapy placebo [7]: 4.93 mmHg
DSBP5_0 therapy [7]: −10.29 mmHg
DELTA delta Therapy placebo [8]: 10.52 mmHg
DSBP5_0 therapy [8]: −12.11 mmHg
DELTA delta Therapy placebo [9]: 5.788 mmHg
DSBP5_0 therapy [9]: −10.51 mmHg
DELTA delta Therapy placebo [10]: 7.817 mmHg
DSBP5_0 therapy [10]: −12.18 mmHg
DSBP5_0 therapy (GWS SNP rs2326912 (TMEM200A) genotype 1): −11.7 mmHg
DELTA delta Therapy placebo [11]: 33.93 mmHg
DSBP5_0 therapy [11]: −30.5 mmHg
DELTA delta Therapy placebo [12]: 3.512 mmHg
DSBP5_0 therapy [12]: −10.69 mmHg
DELTA delta Therapy placebo [13]: 6.845 mmHg
DSBP5_0 therapy [13]: −10.38 mmHg
DELTA delta Therapy placebo [14]: 22.82 mmHg
DSBP5_0 therapy [14]: −20.6 mmHg
DELTA delta Therapy placebo [15]: 6.212 mmHg
DSBP5_0 therapy [15]: −11.83 mmHg
DELTA delta Therapy placebo [16]: 5.2 mmHg
DSBP5_0 therapy [16]: −10.52 mmHg
DELTA delta Therapy placebo [17]: 5.62 mmHg
DSBP5_0 therapy [17]: −11.17 mmHg
DELTA delta Therapy placebo [18]: 7.021 mmHg
DSBP5_0 therapy [18]: −13.044 mmHg
DELTA delta Therapy placebo [19]: 9.016 mmHg
DSBP5_0 therapy [19]: −10.99 mmHg
DELTA delta Therapy placebo [20]: 20.075 mmHg
DSBP5_0 therapy [20]: −23.825 mmHg
DELTA delta Therapy placebo [21]: 13.54 mmHg
DSBP5_0 therapy [21]: −15.81 mmHg
DELTA delta Therapy placebo [22]: 22.09 mmHg
DSBP5_0 therapy [22]: −20.49 mmHg
DELTA delta Therapy placebo [23]: 5.862 mmHg
DSBP5_0 therapy [23]: −10.35 mmHg
DSBP5_0 therapy (GWS SNP rs6718282 (KCNS3) genotype 1): −41.3 mmHg
DELTA delta Therapy placebo [24]: 13.825 mmHg
DSBP5_0 therapy [24]: −12.625 mmHg
DELTA delta Therapy placebo [25]: 13.91 mmHg
DSBP5_0 therapy [25]: −15.81 mmHg
DELTA delta Therapy placebo [26]: 28.95 mmHg
DSBP5_0 therapy [26]: −25 mmHg
DELTA delta Therapy placebo [27]: 7.021 mmHg
DSBP5_0 therapy [27]: −13.044 mmHg
DELTA delta Therapy placebo [28]: 8.442 mmHg
DSBP5_0 therapy [28]: −10.95 mmHg
DELTA delta Therapy placebo (GWS SNP rs9361863 (LOC728360) genotype 1): 19.6 mmHg
